Experimental data: patent US10548984B2 (priority 2015, dated 2020)
Non-standard residues stand in square brackets, D forms with d. Residues, ends and D or L forms follow the SMILES beside them.

Experiments:
[1] = test system: nAchRs present on M17 cells; test: Competitive binding assay and immunocytochemistry of biotinylated peptide on M17 cells; design: species or system human; details: avidin-FITC
Description: To confirm that the binding specificity of the peptide to the neuronal cells was mediated by its binding to nAchRs, a competition assay was performed using alpha bangarotoxin (BTX) peptide, which is a competitive antagonist for nAchRs.
M17 cells were incubated with the biotinylated-peptide (SEQ ID NO:2) (2.5 μM) in the absence or presence of BTX peptide (0.01 μM or 0.1 μM) at 4° C. for 1 hr, stained with avidin-FITC and analyzed by FACS.
Immunocytochemistry was used to confirm the binding of the peptide (SEQ ID NO:2) to M17 cells. M17 cells were incubated with or without biotinylated-peptides (SEQ ID NO:2) or with the MAT peptide which served as a negative control. The cells were then stained with avidin-FITC and viewed by fluorescence microscopy.

mice [2] = test: Immunogenicity study (serum antibody ELISA); assay type: in vivo, mouse; details: i.v. injection
Description: Mice were injected intravenously with 50 μg of siRNA complexed with either the Test-Peptide or Test-RI Peptide vectors, with the peptide vector alone or with PBS as negative control for three consecutive days, and then on every alternate day for 14 days. […] To detect the presence of antibodies to the Test-Peptide or Test-RI-peptide, serum was collected from the mice on day 21 and serial double dilution (1:100 followed by 10 dilutions) of the sera was incubated in 384 well microtitre plate coated with either Test-Peptide or Test-RI-peptide (50 ng/well). The bound antibody was detected with a goat anti-mouse Ig-HRP conjugate.

mice [3] = details: mouse, in vivo

| Molecule | binding of peptide to M17 cells (FITC-positive immunostaining) ([1]; biotinylated peptide, fluorescence microscopy) | antibody response (mice [2]) | production of inflammatory cytokines (mice [3]) | inhibition of biotinylated-peptide (SEQ ID NO:2) binding to M17 cells ([1]; peptide 2.5 μM, BTX 0.01 μM or 0.1 μM, 4° C., 1 hr, FACS) |
| --- | --- | --- | --- | --- |
| CDIFTNSRGK [peptide (SEQ ID NO:2), RVG derived 10 residue peptide] | binds specifically to neuronal cells |  |  |  |
| CC[C@@H](C)[C@@H](NC(=O)[C@@H](Cc1ccccc1)NC(=O)[C@H](NC(=O)[C@@H](CC(N)=O)NC(=O)[C@@H](CO)NC(=O)[C@@H](CCCNC(=N)N)NC(=O)CNC(=O)[C@@H](CCCCN)NC(=O)CN(C)C(=O)CN(C)C(=O)CN(C)C(=O)CN(C)C(=O)[C@@H](CCCNC(=N)N)NC(=O)[C@@H](CCCNC(=N)N)NC(=O)[C@@H](CCCNC(=N)N)NC(=O)[C@@H](CCCNC(=N)N)NC(=O)[C@@H](CCCNC(=N)N)NC(=O)[C@@H](CCCNC(=N)N)NC(=O)[C@@H](CCCNC(=N)N)NC(=O)[C@@H](CCCNC(=N)N)NC(=O)[C@H](N)CCCNC(=N)N)[C@H](C)O)C(=O)N[C@H](CC(=O)O)C(=O)N[C@H](CS)C(=O)O [Test-RI-peptide, H-rrrrrrrrr-Sar-Sar-Sar-Sar-kGrsntfidc] |  | did not elicit an antibody response | did not elicit an antibody response or result in the production inflammatory cytokines |  |
| CC[C@H](C)[C@H](NC(=O)[C@H](CC(=O)O)NC(=O)[C@@H](N)CS)C(=O)N[C@@H](Cc1ccccc1)C(=O)N[C@H](C(=O)N[C@@H](CC(N)=O)C(=O)N[C@@H](CO)C(=O)N[C@@H](CCCNC(=N)N)C(=O)NCC(=O)N[C@@H](CCCCN)C(=O)NCC(=O)NCC(=O)NCC(=O)NCC(=O)N[C@H](CCCNC(=N)N)C(=O)N[C@H](CCCNC(=N)N)C(=O)N[C@H](CCCNC(=N)N)C(=O)N[C@H](CCCNC(=N)N)C(=O)N[C@H](CCCNC(=N)N)C(=O)N[C@H](CCCNC(=N)N)C(=O)N[C@H](CCCNC(=N)N)C(=O)N[C@H](CCCNC(=N)N)C(=O)N[C@H](CCCNC(=N)N)C(=O)O)[C@@H](C)O [Test-peptide] (H-CDIFTNSRGKGGGG[dR][dR][dR][dR][dR][dR][dR][dR][dR]-OH; C-terminus assumed) |  | did not elicit an antibody response | did not elicit an antibody response or result in the production inflammatory cytokines |  |
| alpha bangarotoxin [BTX, reference compound] |  |  |  | inhibited peptide binding to M17 cells in a dose-dependent manner |
